The source made the active and inactive calls.
Tests used:
[1] = biological target: T1, RNA-editing ligase 1, mitochondrial (Trypanosoma brucei brucei, UniProt P86926); assay: inhibition of trypanosome RNA editing ligase – biochemical, fluorescence, Trypanosoma brucei, dose response (AID 1117295); format: functional
T1 sequence (P86926 whole entry): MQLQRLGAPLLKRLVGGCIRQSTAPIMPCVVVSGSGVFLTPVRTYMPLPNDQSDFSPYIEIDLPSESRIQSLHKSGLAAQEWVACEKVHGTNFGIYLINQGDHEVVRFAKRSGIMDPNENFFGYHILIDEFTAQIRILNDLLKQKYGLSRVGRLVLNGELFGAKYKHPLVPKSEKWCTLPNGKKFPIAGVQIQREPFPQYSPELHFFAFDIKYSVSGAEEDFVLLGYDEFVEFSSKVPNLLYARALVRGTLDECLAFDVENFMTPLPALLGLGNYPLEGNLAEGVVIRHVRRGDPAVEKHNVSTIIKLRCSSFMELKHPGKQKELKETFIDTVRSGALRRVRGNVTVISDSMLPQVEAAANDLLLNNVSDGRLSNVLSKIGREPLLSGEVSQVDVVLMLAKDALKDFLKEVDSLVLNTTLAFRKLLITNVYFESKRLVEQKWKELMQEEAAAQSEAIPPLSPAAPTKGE

[2] = biological target: FAD-linked sulfhydryl oxidase ALR (Homo sapiens, UniProt P55789); assay: ALR-catalysed DTT oxidation blockers – biochemical, H2O2 detection, luminescence, cherry-pick, dose response (AID 493248)
[3] = biological target: T2, Aminopeptidase N (Plasmodium falciparum FcB1/Columbia, UniProt O96935); assay: malaria alanyl aminopeptidase activity blockers – biochemical, fluorogenic H-Leu-NHMec substrate, 1536-well (AID 1445); set-up: species or system Plasmodium falciparum 3D7, 3D7
T2 sequence (O96935 whole entry): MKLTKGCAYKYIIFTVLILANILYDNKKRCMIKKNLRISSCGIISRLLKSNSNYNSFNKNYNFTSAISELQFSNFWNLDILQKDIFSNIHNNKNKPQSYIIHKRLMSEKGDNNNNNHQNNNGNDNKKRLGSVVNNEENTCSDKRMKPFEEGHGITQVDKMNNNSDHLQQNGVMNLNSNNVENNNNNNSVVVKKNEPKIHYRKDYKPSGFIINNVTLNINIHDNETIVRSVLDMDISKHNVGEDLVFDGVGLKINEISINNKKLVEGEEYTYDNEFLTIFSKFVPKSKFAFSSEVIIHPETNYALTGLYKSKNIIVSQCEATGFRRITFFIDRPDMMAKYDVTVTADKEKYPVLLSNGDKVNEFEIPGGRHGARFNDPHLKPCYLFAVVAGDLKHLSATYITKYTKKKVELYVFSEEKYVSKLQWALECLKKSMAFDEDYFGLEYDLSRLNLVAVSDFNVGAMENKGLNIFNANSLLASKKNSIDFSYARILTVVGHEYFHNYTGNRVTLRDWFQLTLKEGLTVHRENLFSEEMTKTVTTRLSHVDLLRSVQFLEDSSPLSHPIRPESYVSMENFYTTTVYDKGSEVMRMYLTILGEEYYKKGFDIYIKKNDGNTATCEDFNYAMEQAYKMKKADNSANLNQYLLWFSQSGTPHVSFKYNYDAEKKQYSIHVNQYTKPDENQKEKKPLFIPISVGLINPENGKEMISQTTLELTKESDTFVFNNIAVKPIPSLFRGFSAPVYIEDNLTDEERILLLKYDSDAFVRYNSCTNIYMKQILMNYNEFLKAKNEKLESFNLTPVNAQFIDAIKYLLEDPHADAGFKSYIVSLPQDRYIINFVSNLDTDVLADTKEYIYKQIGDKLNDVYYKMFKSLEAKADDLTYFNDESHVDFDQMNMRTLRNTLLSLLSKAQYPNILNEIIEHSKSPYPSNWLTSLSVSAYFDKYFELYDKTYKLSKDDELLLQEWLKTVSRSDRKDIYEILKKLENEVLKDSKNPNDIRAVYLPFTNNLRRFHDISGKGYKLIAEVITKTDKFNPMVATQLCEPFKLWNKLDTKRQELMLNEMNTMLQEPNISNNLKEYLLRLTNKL

[4] = system: INS1; assay: INS-1E survival protection against cytokine death – cell-based, luminescence, retest, dose response (AID 449756); format: functional; details: Rattus norvegicus;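 note: cell death triggered by IL-1 beta plus TNF-alpha plus IFN-gamma mixture; protective hits raise ATP signal compared with cytokine alone wells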
[5] = system: BJ; assay: BJ-TERT fibroblast viability loss – cell-based, RAS-independent, luminescence, dose response (AID 1933); format: functional; details: Homo sapiens
[6] = NIH3T3 cell viability loss – ATP luminescence, mouse fibroblasts, counter-screen, dose response (AID 2010); format: functional, cell-based;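 note: cells exposed to compound for about 90 hours before reading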
[7] = biological target: T3, COUP transcription factor 2 (Homo sapiens, UniProt P24468); assay: Luminescence-based cell-based high throughput dose response assay to identify inhibitors of COUP-TFII (NR2F2).; format: functional;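 note: HEK293 cells transiently cotransfected with COUP-TFII expression vector and reporter; luciferase reporter luminescence driven by COUP-TFII from the pX2-168 reporter plasmid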
T3 sequence (P24468 whole entry): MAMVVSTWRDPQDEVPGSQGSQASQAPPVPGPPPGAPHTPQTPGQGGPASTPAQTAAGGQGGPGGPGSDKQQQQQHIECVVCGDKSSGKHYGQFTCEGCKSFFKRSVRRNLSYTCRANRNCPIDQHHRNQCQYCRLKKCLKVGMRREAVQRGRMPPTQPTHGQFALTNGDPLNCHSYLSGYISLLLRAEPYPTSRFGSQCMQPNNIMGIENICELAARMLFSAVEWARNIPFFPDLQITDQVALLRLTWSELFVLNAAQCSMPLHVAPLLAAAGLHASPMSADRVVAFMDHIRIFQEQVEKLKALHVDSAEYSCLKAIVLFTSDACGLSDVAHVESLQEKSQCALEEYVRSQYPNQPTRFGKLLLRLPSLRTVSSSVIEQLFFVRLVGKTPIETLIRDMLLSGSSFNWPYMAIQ

[8] = biological target: Paired box protein Pax-8 (Homo sapiens, UniProt Q06710); assay: PAX8 transcriptional activity inhibition in RMG-I – RMG-I cells, luciferase, cherry-pick, dose response (AID 687027); format: functional, cell-based;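 note: luciferase reporter driven by Pax8 target thyroperoxidase promoter measured by SteadyGlo luminescence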
[9] = Trypanosoma cruzi growth suppression in host cells – NIH3T3 host cells, beta-gal luminescence, confirmation (AID 2044); format: functional, cell-based;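 note: intracellular parasites grown in NIH/3T3 mouse fibroblasts as host cells; luminescent beta-galactosidase reporter signal from transgenic T. cruzi replicating inside host cells; inhibitors lower the luminescence signal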
[10] = biological target: T4, Galanin receptor type 3 (Homo sapiens, UniProt O60755); assay: Fluorescence-based cell-based primary high throughput dose response assay to identify antagonists of the Galanin Receptor 3 (GalR3).; format: functional
T4 sequence (O60755 whole entry): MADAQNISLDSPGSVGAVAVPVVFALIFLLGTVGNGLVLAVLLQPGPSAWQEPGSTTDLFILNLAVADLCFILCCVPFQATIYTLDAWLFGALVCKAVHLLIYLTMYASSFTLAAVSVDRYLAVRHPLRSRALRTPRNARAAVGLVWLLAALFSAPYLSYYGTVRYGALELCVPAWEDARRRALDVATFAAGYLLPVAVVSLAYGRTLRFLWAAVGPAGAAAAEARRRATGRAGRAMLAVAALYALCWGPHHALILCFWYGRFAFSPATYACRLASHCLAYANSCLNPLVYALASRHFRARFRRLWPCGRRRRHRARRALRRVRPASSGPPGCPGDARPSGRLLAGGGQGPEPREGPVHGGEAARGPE

[11] = system: BJ; assay: BJ-TERT-LT-ST fibroblast viability loss – cell-based, RAS-independent, luminescence, dose response (AID 1935); format: functional; details: Homo sapiens;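 note: BJ fibroblasts immortalized with TERT plus LT and ST oncogenes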
[12] = DRD fibroblast viability loss – cell-based, non-viral oncogenic, luminescence, dose response (AID 1934); format: functional; details: Homo sapiens
[13] = system: BJ; assay: cells; format: functional, cell-based; details: Homo sapiens
[14] = cells; format: functional, cell-based; details: HEK-CNG
[15] = HEK-293T viability loss after treatment – luminescence, T-cell screen hits, cytotoxicity control for TCR NF-kB inhibitor project, dose response (AID 489026); format: functional, cell-based;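 note: cells exposed to compound about 14 hours before the viability readout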
[16] = non-specific 3'UTR reporter inhibition in Clone20-Shn3RL – cell-based, Renilla luciferase, cherry-picked, counter-screen for Shn3 inhibitor project, dose response (AID 624133); format: functional
[17] = reduction of Shn3 3'UTR-driven luciferase in osteoblasts – cell-based, Clone20 osteoblasts, firefly luciferase, cherry-picked, dose response (AID 624132); format: functional;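 note: firefly luciferase luminescence from reporter carrying the Shn3 3'UTR in osteoblasts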
[18] = loss of viability in HepG2 cells – cell-based, CellTiter-Glo, cherry-picked, cytotoxicity control for Shn3 inhibitor project, dose response (AID 624134); format: functional
[19] = biological target: Ras and Rab interactor 1/Tyrosine-protein kinase ABL1 (Homo sapiens, UniProt P00519+Q13671); format: functional;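 note: biochemical TR-FRET dose-response test measuring inhibition of binding between Rin1 and Abl proteins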
[20] = general cell-killing toxicity readout – plate reader, dry powder samples, cytotoxicity control for PAX8 inhibitor project, dose response (AID 743021); format: functional, cell-based
[21] = system: HEK293; assay: viability loss in HEK293T cells – cell-based, ATP luminescence, cherry-pick samples, cytotoxicity control, dose response (AID 687005); format: functional; details: Homo sapiens;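 note: cells exposed to compound for 48 hours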
[22] = HEK293 Cytotoxicity Assay Measured in Cell-Based System Using Plate Reader - 7071-01_Inhibitor_Dose_CherryPick_Activity_Set2.; format: functional
[23] = system: Vero; assay: mammalian cell viability reduction – secondary assay, cytotoxicity control for West Nile virus antiviral project, dose response (AID 1650); format: functional; details: Chlorocebus sabaeus
[24] = A Cell Based Secondary Assay To Explore Cytotoxicity of Compounds that Sensitize Mycobacterium Tuberculosis to Beta-Lactam Antibiotics.; format: functional
[25] = biological target: T5, Heat shock factor protein 1 (Mus musculus, UniProt P38532); assay: enhancement of HSF1-driven luciferase signal – cell-based, NIH3T3, luminescence, dose retest, confirmation (AID 435004); format: functional;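 note: stress induced by proteasome inhibitor MG132 added 30 min after compound; luciferase reporter driven by HSF1 response element in NIH3T3 cells; actives raise luminescence as potentiators of the MG132 stress response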
T5 sequence (P38532 whole entry): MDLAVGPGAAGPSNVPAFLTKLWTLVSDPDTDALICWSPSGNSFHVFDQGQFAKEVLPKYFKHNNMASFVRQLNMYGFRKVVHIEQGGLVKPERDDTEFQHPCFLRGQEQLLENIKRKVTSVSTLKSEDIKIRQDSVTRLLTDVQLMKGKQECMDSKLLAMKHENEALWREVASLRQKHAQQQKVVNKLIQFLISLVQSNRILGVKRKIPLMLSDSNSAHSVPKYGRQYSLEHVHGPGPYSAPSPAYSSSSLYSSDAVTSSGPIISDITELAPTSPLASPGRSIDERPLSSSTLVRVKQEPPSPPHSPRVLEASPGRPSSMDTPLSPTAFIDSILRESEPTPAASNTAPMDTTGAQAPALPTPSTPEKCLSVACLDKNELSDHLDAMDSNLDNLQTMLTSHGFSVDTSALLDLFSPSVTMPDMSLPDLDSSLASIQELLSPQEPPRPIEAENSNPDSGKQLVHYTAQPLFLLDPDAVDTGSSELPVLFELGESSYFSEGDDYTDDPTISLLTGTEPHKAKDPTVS

[26] = biological target: SWI/SNF-related matrix-associated actin-dependent regulator of chromatin subfamily A member 2 (Homo sapiens, UniProt P51531); assay: Luminescence-based cell-based high throughput dose response assay to identify activators of the function of SWI/SNF related, matrix associated, actin dependent regulator of chromatin, subfamily a, member 2 (SMARCA2, BRM).; format: functional
[27] = Counterscreen for activators of the function of SWI/SNF related, matrix associated, actin dependent regulator of chromatin, subfamily a, member 2 (SMARCA2, BRM): Luminescence-based cell-based high throughput dose response assay to identify non-selective compounds using the VP16 reporter assay.; format: functional

Sequence of Paired box protein Pax-8 (Q06710 whole entry): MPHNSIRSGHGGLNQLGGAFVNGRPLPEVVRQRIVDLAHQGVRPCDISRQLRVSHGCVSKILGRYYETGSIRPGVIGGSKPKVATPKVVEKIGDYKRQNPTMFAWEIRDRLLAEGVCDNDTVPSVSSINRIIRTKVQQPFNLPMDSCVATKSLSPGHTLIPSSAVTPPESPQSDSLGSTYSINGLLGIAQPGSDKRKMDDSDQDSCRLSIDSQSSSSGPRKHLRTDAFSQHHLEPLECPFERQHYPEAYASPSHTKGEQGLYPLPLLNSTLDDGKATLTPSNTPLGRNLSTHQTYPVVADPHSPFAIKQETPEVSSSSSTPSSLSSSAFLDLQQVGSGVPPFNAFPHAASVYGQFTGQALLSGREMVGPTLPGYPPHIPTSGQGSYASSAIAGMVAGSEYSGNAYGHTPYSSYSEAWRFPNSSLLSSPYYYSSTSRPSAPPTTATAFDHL
Sequence of Ras and Rab interactor 1/Tyrosine-protein kinase ABL1 (P00519 whole entry): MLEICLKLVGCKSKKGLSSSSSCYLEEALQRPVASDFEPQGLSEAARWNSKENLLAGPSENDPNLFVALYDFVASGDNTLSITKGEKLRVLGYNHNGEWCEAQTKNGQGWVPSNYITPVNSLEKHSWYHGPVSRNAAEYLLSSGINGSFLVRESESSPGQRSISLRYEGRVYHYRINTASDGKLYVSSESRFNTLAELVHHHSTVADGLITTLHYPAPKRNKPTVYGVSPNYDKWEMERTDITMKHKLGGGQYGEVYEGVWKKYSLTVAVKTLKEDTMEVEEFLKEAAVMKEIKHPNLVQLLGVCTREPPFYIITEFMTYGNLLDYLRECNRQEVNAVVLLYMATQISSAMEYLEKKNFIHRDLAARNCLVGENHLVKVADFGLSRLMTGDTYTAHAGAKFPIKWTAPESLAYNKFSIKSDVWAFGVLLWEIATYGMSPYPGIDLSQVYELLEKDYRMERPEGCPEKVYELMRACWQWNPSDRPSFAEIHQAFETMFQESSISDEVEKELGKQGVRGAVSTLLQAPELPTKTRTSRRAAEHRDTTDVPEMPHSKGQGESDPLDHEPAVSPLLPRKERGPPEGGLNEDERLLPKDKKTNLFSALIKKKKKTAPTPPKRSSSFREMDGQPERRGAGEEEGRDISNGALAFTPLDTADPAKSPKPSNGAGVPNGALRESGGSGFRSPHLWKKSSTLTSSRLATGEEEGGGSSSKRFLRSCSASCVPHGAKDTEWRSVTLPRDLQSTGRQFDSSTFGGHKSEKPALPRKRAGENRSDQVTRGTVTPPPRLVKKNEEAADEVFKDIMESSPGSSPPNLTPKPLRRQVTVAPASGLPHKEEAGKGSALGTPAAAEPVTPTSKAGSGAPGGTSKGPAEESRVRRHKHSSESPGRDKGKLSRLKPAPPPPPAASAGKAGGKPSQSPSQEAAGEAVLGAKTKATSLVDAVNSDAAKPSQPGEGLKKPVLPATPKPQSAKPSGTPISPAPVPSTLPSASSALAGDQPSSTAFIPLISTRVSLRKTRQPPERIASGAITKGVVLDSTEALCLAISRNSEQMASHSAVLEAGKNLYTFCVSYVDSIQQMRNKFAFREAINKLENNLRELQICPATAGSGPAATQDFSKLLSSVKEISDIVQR
Sequence of Ras and Rab interactor 1/Tyrosine-protein kinase ABL1 (Q13671 whole entry): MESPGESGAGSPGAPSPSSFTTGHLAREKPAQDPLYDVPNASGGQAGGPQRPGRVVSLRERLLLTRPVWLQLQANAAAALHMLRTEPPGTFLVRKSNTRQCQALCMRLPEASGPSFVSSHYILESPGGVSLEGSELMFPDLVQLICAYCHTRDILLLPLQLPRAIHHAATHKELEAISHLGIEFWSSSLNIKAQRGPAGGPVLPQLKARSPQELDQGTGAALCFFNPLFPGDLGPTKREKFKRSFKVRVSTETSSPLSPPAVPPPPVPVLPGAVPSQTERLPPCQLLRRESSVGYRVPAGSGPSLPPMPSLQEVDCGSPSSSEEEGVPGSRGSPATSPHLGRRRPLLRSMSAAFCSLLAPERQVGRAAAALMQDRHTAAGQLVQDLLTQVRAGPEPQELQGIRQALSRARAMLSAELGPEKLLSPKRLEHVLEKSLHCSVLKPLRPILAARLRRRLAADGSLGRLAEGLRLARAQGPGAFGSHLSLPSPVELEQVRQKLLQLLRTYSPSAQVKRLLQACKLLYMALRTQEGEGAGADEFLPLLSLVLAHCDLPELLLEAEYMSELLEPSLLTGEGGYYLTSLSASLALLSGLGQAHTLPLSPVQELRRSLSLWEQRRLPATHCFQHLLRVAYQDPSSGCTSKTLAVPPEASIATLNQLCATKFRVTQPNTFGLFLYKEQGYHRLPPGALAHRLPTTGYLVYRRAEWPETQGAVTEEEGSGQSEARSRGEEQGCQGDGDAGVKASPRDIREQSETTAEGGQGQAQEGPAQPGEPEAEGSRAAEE
Sequence of SWI/SNF-related matrix-associated actin-dependent regulator of chromatin subfamily A member 2 (P51531 whole entry): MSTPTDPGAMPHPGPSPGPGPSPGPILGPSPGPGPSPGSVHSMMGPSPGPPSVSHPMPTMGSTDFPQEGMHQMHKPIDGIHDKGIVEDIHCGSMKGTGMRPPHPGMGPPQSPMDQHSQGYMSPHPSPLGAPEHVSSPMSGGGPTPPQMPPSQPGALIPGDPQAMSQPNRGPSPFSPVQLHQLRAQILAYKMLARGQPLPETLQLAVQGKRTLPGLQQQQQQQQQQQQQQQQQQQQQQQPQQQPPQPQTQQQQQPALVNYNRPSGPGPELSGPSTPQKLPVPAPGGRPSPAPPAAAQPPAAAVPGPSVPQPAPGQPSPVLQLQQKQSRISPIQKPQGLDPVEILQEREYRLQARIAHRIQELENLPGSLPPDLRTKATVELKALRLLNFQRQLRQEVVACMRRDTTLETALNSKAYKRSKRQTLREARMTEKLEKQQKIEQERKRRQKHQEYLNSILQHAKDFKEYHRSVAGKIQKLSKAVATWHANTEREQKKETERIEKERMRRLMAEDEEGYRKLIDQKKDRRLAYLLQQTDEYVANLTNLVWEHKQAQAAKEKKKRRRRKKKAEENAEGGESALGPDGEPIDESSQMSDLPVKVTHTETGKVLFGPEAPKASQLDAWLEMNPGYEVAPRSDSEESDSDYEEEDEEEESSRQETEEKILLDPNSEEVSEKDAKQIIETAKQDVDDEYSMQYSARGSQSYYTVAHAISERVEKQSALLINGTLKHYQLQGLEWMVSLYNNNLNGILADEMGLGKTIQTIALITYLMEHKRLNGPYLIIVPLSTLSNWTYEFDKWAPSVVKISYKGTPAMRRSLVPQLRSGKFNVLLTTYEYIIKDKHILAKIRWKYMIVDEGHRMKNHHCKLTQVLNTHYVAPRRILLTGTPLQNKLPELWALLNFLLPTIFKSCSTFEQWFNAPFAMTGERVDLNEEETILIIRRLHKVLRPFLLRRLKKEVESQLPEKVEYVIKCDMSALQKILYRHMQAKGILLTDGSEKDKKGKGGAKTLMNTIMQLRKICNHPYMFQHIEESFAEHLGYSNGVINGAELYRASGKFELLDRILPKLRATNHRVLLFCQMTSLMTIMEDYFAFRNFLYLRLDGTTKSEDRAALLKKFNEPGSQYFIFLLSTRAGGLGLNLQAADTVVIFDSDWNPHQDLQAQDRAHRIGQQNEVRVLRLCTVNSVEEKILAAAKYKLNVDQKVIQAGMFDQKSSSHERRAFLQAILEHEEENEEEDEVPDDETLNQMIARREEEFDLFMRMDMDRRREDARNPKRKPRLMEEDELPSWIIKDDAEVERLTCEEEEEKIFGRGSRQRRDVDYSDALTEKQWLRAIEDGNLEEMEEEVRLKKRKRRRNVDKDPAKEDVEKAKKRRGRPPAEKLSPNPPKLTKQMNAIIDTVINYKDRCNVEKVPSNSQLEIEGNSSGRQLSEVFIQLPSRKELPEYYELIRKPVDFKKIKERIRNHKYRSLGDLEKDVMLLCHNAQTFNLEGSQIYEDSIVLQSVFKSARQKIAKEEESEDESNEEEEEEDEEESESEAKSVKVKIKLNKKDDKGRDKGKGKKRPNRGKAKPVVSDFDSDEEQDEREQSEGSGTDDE
Sequence of FAD-linked sulfhydryl oxidase ALR (P55789 whole entry): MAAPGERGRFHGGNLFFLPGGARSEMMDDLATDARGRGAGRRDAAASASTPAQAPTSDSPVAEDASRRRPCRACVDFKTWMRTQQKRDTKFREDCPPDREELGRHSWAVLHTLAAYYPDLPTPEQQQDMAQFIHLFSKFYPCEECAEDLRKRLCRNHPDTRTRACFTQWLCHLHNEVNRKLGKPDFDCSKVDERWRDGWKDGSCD

With Nc1ccc(-c2nc3ccc(N)cc3[nH]2)cc1 the IC50 [1] was 46.1 µM (inactive), the AC50 [2] was 2.55 µM (active) and the IC50 [3] was 49.9 µM (active).
For O=C(NC(Nc1nc2ccc([N+](=O)[O-])cc2s1)(C(F)(F)F)C(F)(F)F)c1cccnc1, the AC50 [4] was 2.6 µM (active), the EC50 [5] was 8.85 µM (inconclusive) and the EC50 [6] was < 6 µM (inconclusive). For the same compound, the IC50 [7] was 8.8 µM (active), the AC50 [8] was 1.86 µM (active) and the EC50 [9] was 1.38 µM (active). The IC50 [10] was > 1.11 µM (active), the EC50 [11] was 11.4 µM (active) and the EC50 [12] was 10.4 µM (active). For the same compound, the EC50 [13] was 4.98 µM (active) and the EC50 [14] was > 29.9 µM (inactive).
With Cc1oc(-c2ccc(Cl)cc2)nc1C[S+]([O-])CC(=O)NCCCN1CCN(Cc2ccccc2)CC1 (stereo unspecified) the IC50 [7] was 4.34 µM (active), the IC50 [15] was > 80 µM (inactive) and the IC50 [10] was 2.03 µM (active). The AC50 [16] was 4.29 µM (active), the AC50 [17] was 2.52 µM (active) and the AC50 [18] was 1.69 µM (active). For the same compound, the EC50 [14] was > 29.9 µM (inactive).
For OCC1OC(n2cnc3c(NCc4ccccc4O)ncnc32)C(O)C1O (stereo unspecified), the AC50 [8] was 0.759 µM (active), the IC50 [19] was > 24.5 µM (inactive) and the AC50 [20] was 4.79 µM (active).
In the case of O=C(C[C@@H]1CC[C@@H]2[C@H](COC[C@@H](O)CN2C(=O)Nc2ccc(Cl)cc2)O1)NC1Cc2ccccc2C1, the AC50 [21] is reported as 25.2 µM (active) and the AC50 [22] is reported as 25.2 µM (active).
In the case of O=C(Nc1cccc(C(F)(F)F)c1)N1CCC(c2nc(-c3ccc(F)cc3)no2)CC1, the CC50 [23] is reported as 12.6 µM (active) and the CC50 [24] is reported as > 40 µM (active).
With Cc1cc(C)nc(Sc2nc(Cl)nc(N(c3ccccc3)c3ccccc3)n2)n1 the EC50 [25] was > 260 µM (inactive), the EC50 [26] was > 91.1 µM (inactive) and the EC50 [27] was > 91.1 µM (inactive).

— ChEMBL document CHEMBL1201862, “PubChem BioAssay data set” (2004)
